In patent US11186577B2, “Vasopressin receptor antagonists and products and methods related thereto” (BlackThorn Therapeutics, Inc., priority 2017, dated 2021):
Read-outs that look alike come from different tables or passages of the source.

Tests used:
[1] = molecular target: human Arginine Vasopressin Receptor 1a (AVPR1a) (Homo sapiens (Human), UniProt P37288); experiment: Vasopressin V1A receptor antagonist assay (AVP-evoked calcium, FLIPR, CHO-AVPR1a cells); type: cell-based
Procedure, shortened: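 CHO cells expressing human AVPR1a, Calcium-6 dye loaded 60-90 min, preincubated with compound 15 min at 37° C., then challenged with AVP at its daily-determined EC80. FLIPR fluorescence; 10-point 1:3 series from 3 μM, duplicates.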

[2] = molecular target: human Oxytocin Receptor (hOTR) (Homo sapiens (Human), UniProt P30559); experiment: Oxytocin receptor antagonist assay (oxytocin-evoked calcium, FLIPR, CHEM-1-hOTR cells); type: cell-based; conditions: read-out: OT IC50
Chain of human Oxytocin Receptor (hOTR) (P30559 whole entry): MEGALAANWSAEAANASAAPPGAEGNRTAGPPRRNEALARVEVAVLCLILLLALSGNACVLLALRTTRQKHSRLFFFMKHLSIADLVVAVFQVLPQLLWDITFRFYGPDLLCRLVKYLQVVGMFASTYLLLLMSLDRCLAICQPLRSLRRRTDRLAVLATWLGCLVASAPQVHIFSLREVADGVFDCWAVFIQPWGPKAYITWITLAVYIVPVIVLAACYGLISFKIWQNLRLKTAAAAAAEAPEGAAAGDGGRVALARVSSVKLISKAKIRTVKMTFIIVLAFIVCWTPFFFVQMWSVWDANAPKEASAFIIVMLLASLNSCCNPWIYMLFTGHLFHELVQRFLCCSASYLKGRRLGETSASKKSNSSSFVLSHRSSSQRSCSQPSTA
Method: This assay was performed in CHEM-1 cells expressing the human Oxytocin Receptor (hOTR) to determine the inhibitory effect of the compounds of the invention on the human Oxytocin receptor. Oxytocin evokes an increase in intracellular calcium in CHEM-1-hOTR cells which is measured in a fluorescence assay on the FLIPR^TETRA using calcium sensitive dyes. Test compounds were assessed for their ability to affect the magnitude of the response to oxytocin, with antagonists showing a concentration-dependent reduction in the oxytocin-mediated fluorescence.
CHEM-1-hOTR ready was used to assay frozen cells (Eurofins #HTS090RTA) which are supplied with a proprietary Media Component.
Cells were thawed in a 37° C. water bath and diluted with the supplied Media Component to a final volume of 10 ml. The cell suspension was centrifuged at 1000 rpm for 3 min at room temperature and the supernatant was discarded. The cell pellet was resuspended in Media Component (10.5 ml) and the cells (25 μL) were dispensed into a poly-D-lysine coated black, clear bottomed, 384-well plate. The plates were incubated overnight at 37° C., 5% CO2.
(§1) At the start of each assay day the potency of oxytocin was assessed and an EC80 concentration was determined for subsequent compound profiling. Assays were performed using a two-step addition protocol on the FLIPR^TETRA; first addition of 5 μl of control or test compound at 10× final in assay buffer with 15 min incubation at 37° C., 5% CO2 followed by 10 μl of oxytocin at 6× final concentration in assay buffer. Changes in fluorescence were monitored for 3 min after both additions on the FLIPR^TETRA using 470-495 nm excitation and 515-575 nm emission wavelengths. The assay buffer consisted of HBSS (+Ca/+Mg) supplemented with 20 mM HEPES, and for the preparation of the oxytocin agonist only, 0.1% w/v bovine serum albumin. The assay was initiated by the removal of growth media from the cells and replaced with 45 μl of Calcium-6 dye (Molecular Devices) prepared at 1× in assay buffer. Cells were loaded with dye for 60-90 min at 37° C., 5% CO2 before initiation of the FLIPR^TETRA protocol. […] For compound profiling, test compounds were first serially diluted in DMSO (10-point curve, 1:3 dilutions) then diluted 33.3-fold in assay buffer prior to addition to the dye loaded cells on the FLIPR^TETRA. At the end of the incubation period 10 μl of oxytocin in assay buffer containing 0.1% BSA was added at the previously determined EC80 concentration.
In-plate controls for the assay include a L-368,899 concentration-response curve as the reference OTR antagonist and an oxytocin concentration-response curve to confirm the reproducibility of the EC80 used for the compound challenge.

[3] = molecular target: human Arginine Vasopressin Receptor 1b (AVPR1b) (Homo sapiens (Human), UniProt P47901); experiment: Vasopressin V1B receptor antagonist assay (AVP-evoked calcium, FLIPR, CHO-AVPR1b cells); type: cell-based
Chain of human Arginine Vasopressin Receptor 1b (AVPR1b) (P47901 whole entry): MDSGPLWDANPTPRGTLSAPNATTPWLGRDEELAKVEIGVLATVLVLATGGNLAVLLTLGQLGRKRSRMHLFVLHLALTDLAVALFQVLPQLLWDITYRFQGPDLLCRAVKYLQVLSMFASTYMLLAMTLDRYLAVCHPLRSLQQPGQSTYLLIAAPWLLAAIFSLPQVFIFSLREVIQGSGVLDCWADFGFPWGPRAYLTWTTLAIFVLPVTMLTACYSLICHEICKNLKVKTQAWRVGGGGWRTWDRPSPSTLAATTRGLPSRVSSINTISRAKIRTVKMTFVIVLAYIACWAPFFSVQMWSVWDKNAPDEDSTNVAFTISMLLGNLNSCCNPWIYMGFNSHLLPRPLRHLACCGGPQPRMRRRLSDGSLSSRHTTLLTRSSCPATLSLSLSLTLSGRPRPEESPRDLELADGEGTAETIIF
Method: The purpose of the assay is to determine the inhibitory effect of synthesized compounds on the Vasopressin V1b receptor. The assay was performed in Chinese Hamster Ovary (CHO) cells expressing the human Arginine Vasopressin Receptor 1b (AVPR1b). Arginine Vasopressin (AVP) evokes an increase in intracellular calcium in CHO-AVPR1b cells which is measured in a fluorescence assay on the FLIPR^TETRA using calcium sensitive dyes. Test compounds were assessed for their ability to affect the magnitude of the response to AVP, with antagonists showing a concentration-dependent reduction in the AVP-mediated fluorescence.
CHO-AVPR1b cells were maintained in routine culture in T175 Flasks at 37° C., 5% CO2. The growth medium consisted of Ham's F12 media supplemented with 10% v/v fetal bovine serum, 1× non-essential amino acids, and 0.4 mg/ml Geneticin G418.
Cells were harvested from T175 flasks when they were 80-90% confluent by first washing the cell monolayer with PBS and then dissociated using trypsin 0.05%/EDTA (3 mL for a T175 Flask). The flasks were incubated at room temperature until the cells detached. To the cell suspension, 10 ml of growth media was added and the cell density determined using the Vi-Cell automated cell counter. The cells were spun at 1000 rpm for 3 minutes, then the supernatant was carefully removed and discarded. The cell pellet was re-suspended at 6.0e^5 cells/ml in growth media. 25 μL of cells in growth media was dispensed into each well (15,000 cells per well) of a poly-D-lysine coated black, clear bottomed, 384-well plate. The plates were incubated at 37° C., 5% CO2 overnight.
as §1, with “day,” for “day”, “AVP is” for “oxytocin was”, “concentration” for “concentration was”, “AVP” for “oxytocin”, “replacement” for “replaced”
In-plate controls for the assay include a Nelivaptan concentration-response curve as the reference V1b antagonist and an AVP concentration-response curve to confirm the reproducibility of the EC80 used for the compound challenge.

MDR1 (P-glycoprotein) = experiment: MDR1-MDCK effective efflux assay (Transwell, 10 μM, 1 hour), MDR1-MDCK cells; type: in vitro ADME; conditions: dog, MDCK-MDR1, pH 7.4, MDR1-MDCK cells, apical to basolateral (A>B), 10 μM, 1 hour; read-out: Papp AB MDR1
Method: (§2) The MDR1-MDCK effective efflux assay was performed as described in the BioFocus Standard Operating Procedure, ADME-SOP-56. Both wild-type (WT) and MDR1-MDCK cells (Solvo Biotechnology) were seeded onto 24-well Transwell plates at 2.35×10^5 cells per well and used in confluent monolayers after a 3 day culture at 37° C. under 5% CO2. For both cell types, test and control compounds (propranolol, vinblastine) were added (10 μM, 0.1% DMSO final, n=2) to donor compartments of the Transwell plate assembly in assay buffer (Hanks balanced salt solution supplemented with 25 mM HEPES, adjusted to pH 7.4) for both apical to basolateral (A>B) and basolateral to apical (B>A) measurements. Incubations were performed at 37° C., with samples removed from both donor and acceptor chambers at T=0 and 1 hour and compound analysed by mass spectrometry (LC-MS/MS) including an analytical internal standard.
(§3) Where V is the volume of each Transwell compartment (apical 125 basolateral 600 and concentrations are the relative MS responses for compound (normalized to internal standard) in the donor chamber before incubation and acceptor chamber at the end of the incubation. Area=area of cells exposed for drug transfer (0.33 cm2).
(§4) Efflux ratios (Papp B>A/Papp A>B) were calculated for each compound from the mean Papp values in each direction for both wild-type and MDR1-MDCK cells.
(§5) In order to confirm the involvement of MDR1 in any efflux seen, an “effective efflux ratio” (EER) was calculated by comparing compound efflux ratios (ER) in the two cell types, i.e. EER=ER(MDR1−MDCK)/ER(wild-type MDCK)
(§6) This ratio illustrates the effect of the over-expressed MDR1 normalised for the background movement of compound through the wild-type cells.
(§7) Lucifer Yellow (LY) was added to the apical buffer in all wells to assess viability of the cell layer. Compound recovery from the wells was determined from MS responses (normalized to internal standard) in donor and acceptor chambers at the end of incubation compared to response in the donor chamber pre-incubation.

[4] = MDR1-MDCK effective efflux assay (Transwell, 10 μM, 1 hour), wild-type MDCK cells; type: in vitro ADME; conditions: dog, MDCK, pH 7.4, wild-type MDCK cells, apical to basolateral (A>B), 10 μM, 1 hour; read-out: Papp AB WT
Method: as §2, §3, §4, §5, §6, §7

[5] = molecular target: human Arginine Vasopressin Receptor V2 (AVPR2) (Homo sapiens (Human), UniProt P30518); experiment: Vasopressin V2 receptor antagonist assay (cAMP TR-FRET, 1321N1 cells); type: cell-based
Chain of human Arginine Vasopressin Receptor V2 (AVPR2) (P30518 whole entry): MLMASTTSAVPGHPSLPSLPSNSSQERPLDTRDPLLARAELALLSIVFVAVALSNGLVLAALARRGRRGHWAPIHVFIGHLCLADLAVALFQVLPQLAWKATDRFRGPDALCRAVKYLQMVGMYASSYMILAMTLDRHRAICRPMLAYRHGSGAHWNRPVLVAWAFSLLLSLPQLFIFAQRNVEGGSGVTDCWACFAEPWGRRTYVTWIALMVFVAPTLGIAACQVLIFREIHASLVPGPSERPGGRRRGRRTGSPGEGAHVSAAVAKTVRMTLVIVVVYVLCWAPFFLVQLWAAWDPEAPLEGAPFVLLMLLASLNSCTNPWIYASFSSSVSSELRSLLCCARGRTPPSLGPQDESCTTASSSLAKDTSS
Method: The purpose of the assay was to determine the inhibitory effect of synthesized compounds on the Vasopressin receptor 2. […] Arginine Vasopressin (AVP) evokes an increase in intracellular cAMP in these cells which is measured in a TR-FRET assay using a Europium cAMP tracer and ULight labelled antibody reagents contained in a LANCE Ultra cAMP kit (Perkin Elmer #TRF0263). […] Test compounds were assessed for their ability to affect the magnitude of the response to AVP, with antagonists showing a concentration-dependent decrease in the AVP-mediated reduction in TR-FRET signal.
cAMPZen V2 assay ready cells were thawed at 37° C. and resuspended directly from frozen in 9 ml growth medium consisting of DMEM supplemented with 10% v/v fetal bovine serum, 1× non-essential amino acids, and 1 mM sodium pyruvate. Cells were spun at 1000 rpm for 3 minutes and the supernatant was carefully removed and discarded. The pellet was resuspended in 5 ml stimulation buffer and the cell density determined using the Vi-Cell automated cell counter. The cell suspension was diluted to a 0.2×10^6/ml suspension ready for plating. […] Stimulation buffer consisted of HBSS (+Ca/+Mg) supplemented with 5 mM HEPES, 0.1% BSA stabiliser and 0.5 mM IBMX.
At the start of each assay day the potency of AVP was assessed and an EC80 concentration determined for subsequent compound profiling. Assays were performed by first an addition of 2.5 μl of control or test compound at 4× final concentration in stimulation buffer followed by 2.5 μl of AVP at 4× final concentration in stimulation buffer. After a 1 hour reaction, detection reagents were added by first an addition of 5 μl EU-cAMP tracer, followed by 5 μl ULight-anti-cAMP both diluted as per the manufacturer's instructions. […] For compound profiling, test compounds were dispensed by the Labcyte Echo (10-point curve, 1:3 dilutions) in a target 0.1 μl volume then diluted 750-fold in stimulation buffer containing 3% DMSO prior to addition to the cells. At the end of the incubation period, 2.5 μl of AVP in stimulation buffer was added at the previously determined EC80 concentration.

Chain of human Arginine Vasopressin Receptor 1a (AVPR1a) (P37288 whole entry): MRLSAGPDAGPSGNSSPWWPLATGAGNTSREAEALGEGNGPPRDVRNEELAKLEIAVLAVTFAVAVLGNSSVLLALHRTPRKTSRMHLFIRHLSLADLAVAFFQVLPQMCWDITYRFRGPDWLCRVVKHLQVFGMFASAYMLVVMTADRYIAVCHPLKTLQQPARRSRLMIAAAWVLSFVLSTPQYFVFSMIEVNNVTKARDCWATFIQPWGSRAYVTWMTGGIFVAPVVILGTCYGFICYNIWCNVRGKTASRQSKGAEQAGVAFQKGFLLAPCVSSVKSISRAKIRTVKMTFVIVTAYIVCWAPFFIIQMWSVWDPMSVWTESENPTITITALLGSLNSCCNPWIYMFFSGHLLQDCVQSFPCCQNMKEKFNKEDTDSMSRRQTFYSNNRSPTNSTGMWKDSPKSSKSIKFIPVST

Structure (SMILES) | IC50 ([1]; read-out: V1a IC50) [nM] | IC50 [2] [nM] | IC50 [3] [nM] | IC50 [1] [nM] | Papp A→B at 1 h, 10 μM (MDR1 (P-glycoprotein)) [×10⁻⁶ cm/s] | Papp A→B at 1 h, 10 μM [4] [×10⁻⁶ cm/s] | IC50 [5] [nM]
COC(=O)N1Cc2cc(Cl)ccc2-n2c(C3CC4(C3)CN(c3ncccn3)C4)nnc2C12CC2 [compound 199] | < 100 | > 1000 | > 1000 |  |  |  | 
CCC1c2nnc(C3CC4(C3)CN(c3ccc(F)cn3)C4)n2-c2ccc(Cl)cc2CN1C(=O)OC (centres unmarked) [compound 197, methyl 8-chloro-4-ethyl-1-(2-(5-fluoropyridin-2-yl)-2-azaspiro[3.3]heptan-6-yl)-4H-benzo[f][1,2,4]triazolo[4,3-a][1,4]diazepine-5(6H)-carboxylate] |  |  |  | 100 to 500 | > 20 | > 20 | 
CC1c2nnc(C3CC4(C3)CN(c3ccc(F)cn3)C4)n2-c2ccc(Cl)cc2CN1C(=O)OC(C)(C)CF (single isomer, unassigned) [Cpd 206A] | < 100 | 100 to 500 | > 1000 |  |  |  | 
Cc1nc(N2CC3(CC(c4nnc5n4-c4ccc(Cl)cc4CN(C4CC4)C5)C3)C2)ccc1F [compound 229] | < 100 | 500 to 1000 |  |  |  |  | < 100
COC(=O)N1Cc2cc(Cl)ccc2-n2c(nnc2C2CC3(C2)CN(c2ncccn2)C3)C1 [compound 95] | < 100 | 500 to 1000 |  |  | < 7 | > 20 | 
CC(C)OC(=O)N1Cc2cc(Cl)ccc2-n2c(nnc2C2CC3(C2)CN(c2ncncc2F)C3)C1 [compound 185] | < 100 | 500 to 1000 |  |  | > 20 | > 20 | 
O=C1OCC2c3nnc(C4CC5(C4)CN(c4ccc(F)cn4)C5)n3-c3ccc(Cl)cc3CN12 (centres unmarked) [compound 200, 7-chloro-3-(2-(5-fluoropyridin-2-yl)-2-azaspiro[3.3]heptan-6-yl)-13,13a-dihydro-9H,11H-benzo[e]oxazolo[3,4-a][1,2,4]triazolo[3,4-c][1,4]diazepin-11-one] |  |  |  | 100 to 500 | < 7 | > 20 | 
CC1c2nnc(C3CC4(C3)CN(c3ccc(F)cn3)C4)n2-c2ccc(Cl)cc2CN1C(=O)OC(C)(C)CF (single isomer, unassigned) [Cpd 206B] | 100 to 500 | > 1000 | > 1000 |  |  |  | 
CC1c2nnc(C3CC4(C3)CN(c3ncccn3)C4)n2-c2ccc(Cl)cc2CN1C(=O)OC1(C)CC1 (single isomer, unassigned) [Cpd 205B] | > 1000 | > 1000 | > 1000 |  |  |  | 
CC(C)OC(=O)N1Cc2cc(Cl)ccc2-n2c(C3CC4(C3)CN(c3cccc(C#N)n3)C4)nnc2C1C (single isomer, unassigned) [Cpd 204A] | < 100 | 100 to 500 | > 1000 |  |  |  | 
CC(C)OC(=O)N1Cc2cc(Cl)ccc2-n2c(C3CC4(C3)CN(c3cccc(C#N)n3)C4)nnc2C1C (single isomer, unassigned) [Cpd 204B] | 100 to 500 | > 1000 | > 1000 |  |  |  | 
